Test results: patent publication US11608359B2, “Compounds and methods for treating tight junction permeabtility” (9 Meters Biopharma, Inc., priority 2018, dated 2023)
Where no end group is shown, it is not given here.

Columns and labels:
tight junctions = experiment: activity as tight junction regulators; conditions: for activity as tight junction regulator: peptide fragment alone
[1] = clinical trials, particularly lower doses (e.g., 0.5 mg dose); cited from earlier work

GVLVQP (Synthetic polymer.)
activity as tight junction regulator (tight junctions): inactive

VLVQP (Synthetic polymer.)
activity as tight junction regulator (tight junctions): inactive

GVLVQPG [Larazotide-derived fragment missing N-terminal glycine]
activity as tight junction regulator (tight junctions): inactive

GGVLVQPG [Larazotide]
benefit at reducing CeD symptoms [1]: significant benefit | activity of full length Larazotide as tight junction regulator (tight junctions; mixed with the two fragments GVLVQPG and VLVQPG): completely abolished

VLVQPG
activity as tight junction regulator (tight junctions): inactive
